In patent US9617225B2 (VIROSTATICS SRL, priority 2012, dated 2017):
Read-outs that look alike come from different tables or passages of the source.

Tests used:
[1] = target: human CDK9/CyclinT kinase complex (Homo sapiens (Human), UniProt P50750); experiment: In Vitro CDK9/CyclinT Assay (IMAP fluorescent polarization); format: biochemical
Method in brief: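 Phosphorylation of 400 nM TAMRA-Rbtide (15-mer retinoblastoma-derived peptide) by 5 nM CDK9/CyclinT with 12 μM ATP (=Kmapp) in 20 mM MOPS pH 7, 1 mM DTT, 10 mM MgCl2, 0.01% Tween 20. Reaction run 1 hour at room temperature, stopped with IMAP beads; read by fluorescence polarization.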

[2] = test system: laboratory strain of HIV-1; experiment: Antiviral Activity Against HIV (AV), p24 in infected activated primary T cells; format: cell-based; settings: for IC50: read-out: AV50, Table 5; for antiviral and antiproliferative activity and cytotoxicity profile / anti-HIV and cytotoxicity profile: summary in words
Procedure: Antiviral Activity Against HIV (AV)
Activated primary T cells are infected with a laboratory strain of HIV-1, then cultured and exposed to different concentrations of the test compounds. HIV replication is analysed by measuring the viral protein p24 and expressed as percentage of untreated control. Inhibition of viral replication (AV) is then calculated (AV=100 minus the % p24 compared to control, AV of control=0%). Inhibitory concentration 50% for antiviral activity (AV50) is calculated.

[3] = test system: Primary T cells; experiment: Cytotoxicity, viability by flow cytometry; format: cell-based
Procedure: Primary T cells are cultured and treated with different concentrations of the test compound. Viability is analysed by measuring through flow cytometry based techniques the percentage of viable cells, compared to untreated control=100%).

[4] = Table 4, toxic dose 50%, viable cells

human CDK9/CyclinT kinase complex, sequence (P50750 whole entry): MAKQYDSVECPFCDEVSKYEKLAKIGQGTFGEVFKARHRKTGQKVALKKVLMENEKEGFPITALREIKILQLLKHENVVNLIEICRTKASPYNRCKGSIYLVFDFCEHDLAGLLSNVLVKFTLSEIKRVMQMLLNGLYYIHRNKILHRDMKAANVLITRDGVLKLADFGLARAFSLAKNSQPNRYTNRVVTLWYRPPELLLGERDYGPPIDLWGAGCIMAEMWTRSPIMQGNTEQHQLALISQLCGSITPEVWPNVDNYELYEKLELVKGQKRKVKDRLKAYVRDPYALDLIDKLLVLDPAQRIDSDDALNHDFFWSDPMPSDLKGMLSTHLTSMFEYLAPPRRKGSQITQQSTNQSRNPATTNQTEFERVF
human CDK9/CyclinT kinase complex, sequence (O60563 whole entry partner): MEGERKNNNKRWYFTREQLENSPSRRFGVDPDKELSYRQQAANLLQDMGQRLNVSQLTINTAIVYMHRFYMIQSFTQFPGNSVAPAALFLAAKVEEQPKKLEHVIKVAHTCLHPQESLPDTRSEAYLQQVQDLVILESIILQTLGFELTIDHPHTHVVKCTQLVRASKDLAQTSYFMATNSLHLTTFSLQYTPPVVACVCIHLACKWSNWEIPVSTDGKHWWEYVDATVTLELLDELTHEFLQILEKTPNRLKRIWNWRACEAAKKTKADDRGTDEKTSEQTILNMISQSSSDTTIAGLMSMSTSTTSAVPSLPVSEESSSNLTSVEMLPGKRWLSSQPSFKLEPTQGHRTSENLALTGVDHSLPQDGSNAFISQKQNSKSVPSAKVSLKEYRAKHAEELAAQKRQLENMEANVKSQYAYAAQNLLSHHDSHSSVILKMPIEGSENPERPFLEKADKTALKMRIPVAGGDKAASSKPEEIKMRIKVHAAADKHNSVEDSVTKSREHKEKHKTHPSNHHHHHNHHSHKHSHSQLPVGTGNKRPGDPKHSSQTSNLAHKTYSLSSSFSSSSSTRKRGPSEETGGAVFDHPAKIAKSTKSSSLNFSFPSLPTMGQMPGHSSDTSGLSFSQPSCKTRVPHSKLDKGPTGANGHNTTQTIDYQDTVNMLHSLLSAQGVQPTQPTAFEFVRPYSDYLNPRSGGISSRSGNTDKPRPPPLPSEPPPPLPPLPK

Row | SMILES | IC50 ([1]; Table 1) | IC50 ([1]; Table 5) | IC50 [2] | TD50 [3] | IC50 [1] | antiviral and antiproliferative activity and cytotoxicity profile [2] | TD50 [3, 4] | anti-HIV and cytotoxicity profile [2]
1 | COc1cc(Nc2cc(-c3ccccc3OC)ncn2)ccc1C(N)=O [Example 136, 2-Methoxy-4-[6-(2-methoxy-phenyl)-pyrimidin-4-ylamino]-benzamide] | < 1000 nM | < 1000 nM | > 2000 nM | >2 µM |  |  |  | 
2 | CCOc1cc(F)ccc1-c1cc(Nc2ccc(OC)c(C(N)=O)c2)ncn1 [Example 130, 5-[6-(2-Ethoxy-4-fluoro-phenyl)-pyrimidin-4-ylamino]-2-methoxy-benzamide] |  |  |  | 15 µM | < 100 nM | good antiviral and antiproliferative activity and a good cytotoxicity profile |  | 
3 | COc1ccccc1-c1cc(Nc2ccc(N(C)C)c(Cn3cnc4ccccc43)c2)ncn1 [Example 42, 2-((1H-Benzo[d]imidazol-1-yl)methyl)-N4-(6-(2-methoxyphenyl)pyrimidin-4-yl)-N1,N1-dimethylbenzene-1,4-diamine] |  |  | > 5000 nM | 4 µM | < 1000 nM |  |  | 
4 | COc1ccc(Nc2cc(-c3cc(F)ccc3OC)ncn2)cc1N [Example 75, N^1-[6-(5-Fluoro-2-methoxy-phenyl)-pyrimidin-4-yl]-4-methoxy-benzene-1,3-diamine] | < 1000 nM |  |  | 10 µM |  | good antiviral and antiproliferative activity and a good cytotoxicity profile |  | 
5 | CCOc1ccc(F)cc1-c1cc(Nc2cc(F)c(OC)c(C(N)=O)c2)ncn1 [Example 142, 5-[6-(2-Ethoxy-5-fluoro-phenyl)-pyrimidin-4-ylamino]-3-fluoro-2-methoxy-benzamide] |  |  |  | >20 µM | < 1000 nM | good antiviral and antiproliferative activity and a good cytotoxicity profile |  | 
6 | COc1ccc(Nc2cc(-c3cc(F)ccc3OC)ncn2)cc1C(N)=O [Example 127, 5-[6-(5-Fluoro-2-methoxy-phenyl)-pyrimidin-4-ylamino]-2-methoxy-benzamide] |  |  |  | 7 µM | < 1000 nM | good antiviral and antiproliferative activity and a good cytotoxicity profile |  | 
7 | COc1ccccc1-c1cc(Nc2ccc(OC)c([N+](=O)[O-])c2)ncn1 [Example 11, N-(4-Methoxy-3-nitrophenyl)-6-(2-methoxyphenyl)pyrimidin-4-amine] | < 1000 nM | < 1000 nM | > 1500 nM | >1.5 µM |  |  |  | 
8 | COc1ccc(Nc2cc(-c3ccccc3OC)ncn2)cc1C(=O)O [Example 49, 2-Methoxy-5-[6-(2-methoxy-phenyl)-pyrimidin-4-ylamino]-benzoic acid] | < 1000 nM | < 1000 nM | > 10000 nM | >10 µM |  |  |  | 
9 | COc1cc(F)c(Nc2cc(-c3ccccc3OC)ncn2)cc1C(N)=O [Example 143, 4-Fluoro-2-methoxy-5-[6-(2-methoxy-phenyl)-pyrimidin-4-ylamino]-benzamide] |  |  |  | 15 µM | < 1000 nM | good antiviral and antiproliferative activity and a good cytotoxicity profile |  | 
10 | COc1ccc(Nc2cc(-c3ccccc3OC(C)C)ncn2)cc1N [Example 79, N^1-[6-(2-Isopropoxy-phenyl)-pyrimidin-4-yl]-4-methoxy-benzene-1,3-diamine] | < 1000 nM |  |  | 15 µM |  | good antiviral and antiproliferative activity and a good cytotoxicity profile |  | 
11 | CCOc1ccccc1-c1cc(Nc2cc(C(N)=O)c(OC)cc2F)ncn1 [Example 145, 5-[6-(2-Ethoxy-phenyl)-pyrimidin-4-ylamino]-4-fluoro-2-methoxy-benzamide] |  |  |  | 15 µM | < 1000 nM | good antiviral and antiproliferative activity and a good cytotoxicity profile |  | 
12 | COc1cc(F)c(Nc2cc(-c3cc(F)ccc3OC)ncn2)cc1C(N)=O [Example 144, 4-Fluoro-5-[6-(5-fluoro-2-methoxy-phenyl)-pyrimidin-4-ylamino]-2-methoxy-benzamide] |  |  |  | 12 µM | < 1000 nM | good antiviral and antiproliferative activity and a good cytotoxicity profile |  | 
13 | COc1ccc(Nc2cc(-c3ccccc3OC)ncn2)cc1OC(=O)C(C)(C)C [Example 26, 2-methoxy-5-(6-(2-methoxyphenyl)pyrimidin-4-ylamino)phenyl pivalate] |  |  |  | 6 µM | < 10000 nM | good antiviral and antiproliferative activity and a good cytotoxicity profile |  | 
14 | COc1ccccc1-c1cc(Nc2ccc(Cl)c(Cn3cnc4ccccc43)c2)ncn1 [Example 16, N-(3-((1H-benzo[d]imidazol-1-yl)methyl)-4-chlorophenyl)-6-(2-methoxyphenyl)pyrimidin-4-amine] |  |  |  | 1.5 µM | < 100 nM | good antiviral and antiproliferative activity and a good cytotoxicity profile |  | 
15 | COc1ccc(Nc2cc(-c3ccc(F)cc3OC)ncn2)cc1C(N)=O [Example 128, 5-[6-(4-Fluoro-2-methoxy-phenyl)-pyrimidin-4-ylamino]-2-methoxy-benzamide] | < 1000 nM |  |  | 5 µM |  | good antiviral and antiproliferative activity and a good cytotoxicity profile |  | 
16 | COc1ccc(Nc2cc(-c3cc(F)c(F)cc3OC)ncn2)cc1N [Example 83, N^1-[6-(4,5-Difluoro-2-methoxy-phenyl)-pyrimidin-4-yl]-4-methoxy-benzene-1,3-diamine] | < 1000 nM |  |  | 12 µM |  | good antiviral and antiproliferative activity and a good cytotoxicity profile |  | 
17 | CCOc1ccccc1-c1cc(Nc2ccc(OC)c(C(N)=O)c2)ncn1 [Example 129, 5-[6-(2-Ethoxy-phenyl)-pyrimidin-4-ylamino]-2-methoxy-benzamide] |  |  |  | 5 µM | < 100 nM | good antiviral and antiproliferative activity and a good cytotoxicity profile |  | 
18 | CCOc1ccccc1-c1cc(Nc2cc(F)c(OC)c(C(N)=O)c2)ncn1 [Example 141, 5-[6-(2-Ethoxy-phenyl)-pyrimidin-4-ylamino]-3-fluoro-2-methoxy-benzamide] | < 1000 nM |  |  | >20 µM |  | good antiviral and antiproliferative activity and a good cytotoxicity profile |  | 
19 | COc1ccc(Nc2cc(-c3ccccc3OC)ncn2)cc1NS(=O)(=O)NC1CCCCC1 [Example 13, (2-Methoxy-5-(6-(2-methoxyphenyl)pyrimidin-4-ylamino)phenyl) (cyclohexylsulfamoyl)amine] | < 1000 nM |  |  | 5 µM |  | good antiviral and antiproliferative activity and a good cytotoxicity profile |  | 
20 | COc1ccccc1-c1cc(Nc2ccc(O)c([N+](=O)[O-])c2)ncn1 [Example 12, 4-(6-(2-methoxyphenyl)pyrimidin-4-ylamino)-2-nitrophenol] | < 1000 nM | < 1000 nM | > 1500 nM | >1.5 µM |  |  |  | 
21 | CNC(=O)c1ccc(Nc2cc(-c3ccccc3OC)ncn2)cc1OC [Example 134, 2-Methoxy-4-[6-(2-methoxy-phenyl)-pyrimidin-4-ylamino]-N-methyl-benzamide] | < 1000 nM | < 1000 nM | > 10000 nM | >10 µM |  |  |  | 
22 | COc1ccc(Nc2cc(-c3ccccc3OC)ncn2)cc1O [Example 32, 2-Methoxy-5-(6-(2-methoxyphenyl)pyrimidin-4-ylamino)phenol] | < 100 nM |  |  | 20 µM |  | good antiviral and antiproliferative activity and a good cytotoxicity profile |  | 
23 | COc1ccccc1-c1cc(Nc2ccc(N(C)C)cc2)ncn1 [Example 5, N^1-(6-(2-methoxyphenyl)pyrimidin-4-yl)-N^4,N^4-dimethylbenzene-1,4-diamine] | < 1000 nM |  |  |  |  | good antiviral and antiproliferative activity and a good cytotoxicity profile | >10 µM | 
24 | CC[C@H](CO)Nc1nc(NCc2ccccc2)c2ncn(C(C)C)c2n1 [Roscovitine, reference compound] |  |  |  |  |  |  | 8 µM | poor
25 | COc1ccc(Nc2cc(-c3ccccc3OC)ncn2)cc1CN [Example 43, N-(3-(Aminomethyl)-4-methoxyphenyl)-6-(2-methoxyphenyl)pyrimidin-4-amine] |  |  | > 1000 nM | 2 µM | < 1000 nM | good antiviral and antiproliferative activity and a good cytotoxicity profile |  | 
26 | CN1CC[C@H](c2c(O)cc(O)c3c(=O)cc(-c4ccccc4Cl)oc23)[C@H](O)C1 [Flavopiridol, reference compound] |  |  |  | 0.1 µM |  |  |  | poor
27 | COc1ccc(Nc2cc(-c3cccc(F)c3OC)ncn2)cc1N [Example 81, N^1-[6-(3-Fluoro-2-methoxy-phenyl)-pyrimidin-4-yl]-4-methoxy-benzene-1,3-diamine] |  |  |  | 3 µM | < 10000 nM |  |  | 
28 | COc1ccc(Nc2cc(-c3ccccc3OC)ncn2)cc1C(=O)NN [Example 33, 2-Methoxy-5-(6-(2-methoxyphenyl)pyrimidin-4-ylamino)benzohydrazide] | < 100 nM |  |  | >5 µM |  |  |  | 
